Assay results taken from patent US11524962B2, “Substituted pyrrolo[2,3-d]pyrimidines as inhibitors of protein arginine methyl transferase 5 (PRMT5)” (PRELUDE THERAPEUTICS, INCORPORATED, priority 2017, dated 2022).
Like-named read-outs stand apart in the source and are kept apart here.

What was measured:
[1] = In vivo pharmacokinetic study in rat; conditions: for clearance / half-life / Vd / bioavailability: Sprague-Dawley (SD), blood; for clearance / half-life / Vd: iv; for Vd: read-out: Vss; for bioavailability: po
Method: In a rat (SD, male, non-fasted) non-crossover cassette (n=2) PK study, Example 1 was dosed at 0.5 mg/kg (DMA: […]=5:95, solution) with another compound via i.v. administration (N=3) and 2 mg/kg (0.5% o Na CMC+0.50% Tween80, suspension) with another compound via oral gauge (p.o.) (N=3).
In a rat (SD, male and female, non-fasted) non-crossover cassette (n=4) PK study, Example 6 was dosed at 0.2 mg/kg (DMA: […]=5:95, solution) with other 3 compounds via i.v. administration (N=2 per sex) and 2 mg/kg (0.5% o Na CMC+0.50% Tween80, suspension) with other 3 compounds via oral gauge (p.o.) (N=2 per sex).
In a rat (SD, male and female, non-fasted) non-crossover PK study, Example 11 was dosed at 1 mg/kg (DMA: 20% HPBCD=5:95, solution) via i.v. administration (N=3 per sex) and 3 mg/kg (0.5% Na CMC+0.5% Tween80, suspension) via oral gauge (p.o.) (N=3 per sex).

[2] = In vivo brain exposure study in mouse; conditions: po, mouse CD-1 male, 10 mg/kg p.o.
Method: In a mouse (CD-1, male) brain exposure cassette study, Examples 2 and 6 were dosed together at 10 mg/kg each (0.5% Na CMC+0.5% Tween80, solution) via oral gauge (p.o.). At 3 time points (N=3), 2h, 4h and 8h, plasma and brain samples were analyzed for average drug concentrations.
In a mouse (CD-1, male) brain exposure study, Examples 11 was dosed at 10 mg/kg each (0.5% Na CMC+0.5% Tween80, solution) via oral gauge (p.o.). At 3 time points (N=3), 1 h, 2h and 4h, plasma and brain samples were analyzed for average drug concentrations.

[3] = test system: Symmetric Di-Methyl Arginine (sDMA) marks in U-87 MG cells; experiment: sDMA Western blot / In Cell Western in U-87 MG cells; format: cell-based; conditions: Homo sapiens, 72 h, 3 days, read-out: sDMA_U87 IC50
Method: Compound titration and cell culture: Compounds were dissolved in DMSO to make 10 mM stock and 3-fold series dilutions were further conducted to make working stocks top at 1 mM. Granta-519 cells were maintained in PRMI 1640 (Corning Cellgro, Catalog #: 10-040-CV) supplemented with 10% v/v FBS (GE Healthcare, Catalog #: SH30910.03) and U-87 MG cells were maintained in DMEM (Corning Cellgro, Catalog #: 10-013-CV) with 10% FBS and 2 mM Glutamin (Corning Cellgro, Catalog #25005CV).
To determine enzyme inhibition IC50 values in Granta-519 and U-87 MG cells using Western Blot analysis. One day before experiment, Granta-519 cells were passaged to a density of 0.5×10^6 cells/ml. U-87 MG cells were trypsinized and 4×10^5 cells were seeded into 6-well plates and allow to grow overnight. The next day, Granta-519 cells were spun down at 1,500 rpm for 4 min, resuspend in fresh medium at 0.5×10^6 cells/ml and 3 mL of culture (1.5×10^6 cells) were seeded into 6 well plate. Eight-point, 3-fold serial dilutions of compound working stocks were added to cells (3 ul, 1:1,000 dilution, DMSO concentration was 0.1%; final top concentration at 1 uM) and incubated for 3 days. Cells incubated with DMSO was used as a vehicle control.
Cells were harvested 3 days later, resuspended in 15 uL PBS, lysed in 4% SDS, and homogenized by passing through homogenizer column (Omega Biotek, Catalog #: HCR003). Total protein concentrations were determined by BCA assay (ThermoFisher Scientific, Catalog #: 23225). Lysates were mixed with 5× Laemmli buffer and boiled for 5 min. Forty ug of total protein was separated on SDS-PAGE gels (Bio-Rad, catalog #: 4568083, 4568043), transferred to PVDF membrane, blocked with 5% dry milk (Bio-Rad, Catalog #: 1706404) in TBS with 0.1% v/v Tween 20 (TBST) for 1 hour at room temperature (RT), and incubated with primary antibodies (sDMA: Cell signaling, Catalog #: 13222, 1:3,000; β-Actin: sigma, Catalog #: 1:5,000) in 5% dry milk in TBST at 4° C. overnight. The next day, membranes were washed with TBST, 5×5 min, and incubated with HRP conjugated seconded antibody (GE Healthcare; Catalog #: NA934-1ML, NA931-1ML; 1:5,000) for 2 hours at RT, followed by 5×5 min washes with TBST, and incubation with ECL substrates (Bio-Rad, Catalog #: 1705061, 1705062). Chemiluminescent signal was captured with Fluochem HD2 imager (Proteinsimple). SmD3me2s bands were quantified by ImageJ. Signals were normalized to β-Actin and DMSO control. IC50 values were calculated using Graphpad Prism ([Inhibitor]vs. normalized response−Variable slope).
U87-MG cells were trypsinized one day before the experiment, seeded into a 384-well plate at 2500 cells/well using a Multidrop Combi Dispenser (ThermoFisher) and allowed to grow overnight. The next day (day 0), a series of 9-point, 3-fold serial dilutions of compounds were prepared and dispensed into wells from a 1 mM stock solution using a TECAN digital dispenser (D300e) and the DMSO % concentration was normalized to 0.1%. Three days later, media was removed, and cells were processed as described above.
To determine IC50 values, the ratio for each well was calculated (sDMA 800 nm value/DRAQ5 700 nm value). Each plate included 28 negative control wells (DMSO only, minimum inhibition) and 18 positive control wells for maximum inhibition (treated with 3 uM of a reference compounds, background wells). The average ratios of minimum and maximum inhibition controls were calculated and used to determine the percentage of sDMA, relative to DMSO, for each well in the plate.
These procedures generated the sDMA data in Table 7.

[4] = rat SD male, i.v. 0.5 mg/kg, cassette
[5] = cassette, brain, read-out: Brain-2 h
[6] = cassette, brain, read-out: Brain-4 h
[7] = cassette, brain, read-out: Brain-8 h
[8] = cassette, plasma, read-out: Plasma-2 h
[9] = cassette, plasma, read-out: Plasma-4 h
[10] = cassette, plasma, read-out: Plasma-8 h
[11] = rat SD female, i.v. 0.2 mg/kg, cassette
[12] = rat SD male, i.v. 0.2 mg/kg, cassette
[13] = rat SD female, p.o. 2 mg/kg, cassette (n=4)
[14] = rat SD male, p.o. 2 mg/kg, cassette (n=4)

For `C[C@@](O)(c1ccc2c(c1)CC2)[C@H]1O[C@@H](n2ccc3c(N)ncnc32)[C@H](O)[C@@H]1O` [Example 1, (2R,3R,4S,5S)-2-(4-amino-7H-pyrrolo[2,3-d]pyrimidin-7-yl)-5-((R)-1-(bicyclo[4.2.0]octa-1(6),2,4-trien-3-yl)-1-hydroxyethyl)tetrahydrofuran-3,4-diol], the clearance [1, 4] was 56.2 mL/min/kg, the half-life [1, 4] was 0.35 h and the Vd [1, 4] was 1.36 L/kg. For the same molecule, the “dose normalized AUC” value ([1]; rat SD male, p.o. 2 mg/kg, cassette) was 145 ng·kg·h/mL/mg.

Work on `Nc1ncnc2c1c(F)cn2[C@@H]1O[C@H]([C@H](O)c2ccc3c(c2)CC3)[C@@H](O)[C@H]1O` [Example 6, (2R,3R,4S,5R)-2-(4-amino-5-fluoro-7H-pyrrolo[2,3-d]pyrimidin-7-yl)-5-((R)-bicyclo[4.2.0]octa-1(6),2,4-trien-3-yl(hydroxy)methyl)tetrahydrofuran-3,4-diol] yielded a concentration at 2 h [2, 5] of 183 ng/g, a concentration at 4 h [2, 6] of 45.9 ng/g and a concentration at 8 h [2, 7] of 50.5 ng/g. It also gave a concentration at 2 h [2, 8] of 380 ng/mL, a concentration at 4 h [2, 9] of 138 ng/mL and a concentration at 8 h [2, 10] of 33.7 ng/mL. The clearance [1, 11] was 21.6 mL/min/kg, the half-life [1, 11] was 1.69 h and the Vd [1, 11] was 1.91 L/kg. It also gave a clearance [1, 12] of 59.2 mL/min/kg, a half-life [1, 12] of 0.46 h and a Vd [1, 12] of 1.81 L/kg. For the same molecule, the bioavailability [1, 13] was > 100%, the bioavailability [1, 14] was 51.1% and the “dose normalized AUC” value [1, 13] was 1143 ng·kg·h/mL/mg. For the same molecule, the “dose normalized AUC” value [1, 14] was 144 ng·kg·h/mL/mg and the IC50 [3] was 94 nM.

In the case of `Cc1ncnc2c1ccn2[C@@H]1O[C@H]([C@H](O)c2ccc3c(c2)CC3)[C@@H](O)[C@H]1O` [Example 11, (2R,3S,4R,5R)-2-((R)-bicyclo[4.2.0]octa-1(6),2,4-trien-3-yl(hydroxy)methyl)-5-(4-methyl-7H-pyrrolo[2,3-d]pyrimidin-7-yl)tetrahydrofuran-3,4-diol], the concentration at 1 h ([2]; brain, read-out: Brain-1 h) is reported as 188 ng/g, the concentration at 2 h ([2]; brain, read-out: Brain-2 h) is reported as 85.7 ng/g and the concentration at 4 h ([2]; brain, read-out: Brain-4 h) is reported as 50.2 ng/g. The concentration at 1 h ([2]; plasma, read-out: Plasma-1 h) was 207 ng/mL, the concentration at 2 h ([2]; plasma, read-out: Plasma-2 h) was 148 ng/mL and the concentration at 4 h ([2]; plasma, read-out: Plasma-4 h) was 53.6 ng/mL. It also gave a clearance ([1]; rat SD female, i.v. 1 mg/kg) of 37.2 mL/min/kg, a half-life ([1]; rat SD female, i.v. 1 mg/kg) of 1.84 h and a Vd ([1]; rat SD female, i.v. 1 mg/kg) of 2.71 L/kg. The clearance ([1]; rat SD male, i.v. 1 mg/kg) was 77.5 mL/min/kg, the half-life ([1]; rat SD male, i.v. 1 mg/kg) was 1.06 h and the Vd ([1]; rat SD male, i.v. 1 mg/kg) was 2.85 L/kg. For the same molecule, the bioavailability ([1]; rat SD female, p.o. 3 mg/kg) was 97%, the bioavailability ([1]; rat SD male, p.o. 3 mg/kg) was 13% and the “dose normalized AUC” value ([1]; rat SD female, p.o. 3 mg/kg) was 434 ng·kg·h/mL/mg. For the same molecule, the “dose normalized AUC” value ([1]; rat SD male, p.o. 3 mg/kg) was 33 ng·kg·h/mL/mg and the IC50 [3] was 53 nM.

In the case of `Nc1ncnc2c1ccn2[C@@H]1O[C@H]([C@H](O)c2ccc3c(c2)CC3)[C@@H](O)[C@H]1O` [Example 2, (2R,3R,4S,5R)-2-(4-amino-7H-pyrrolo[2,3-d]pyrimidin-7-yl)-5-((R)-bicyclo[4.2.0]octa-1(6),2,4-trien-3-yl(hydroxy)methyl)tetrahydrofuran-3,4-diol], the concentration at 2 h [2, 5] is reported as 244 ng/g, the concentration at 4 h [2, 6] is reported as 174 ng/g and the concentration at 8 h [2, 7] is reported as 76.2 ng/g. For the same molecule, the concentration at 2 h [2, 8] was 1610 ng/mL, the concentration at 4 h [2, 9] was 802 ng/mL and the concentration at 8 h [2, 10] was 178 ng/mL.
